The series in a line: solubility (saturation concentration) of roflumilast in solvent-water blends, HPLC after 0.2 micron filtration. Format: physicochemical. Particulars: controlled room temperature. Here is the method: The solubility of roflumilast in various solvents was determined. Compositions of roflumilast and the solvents identified in Table 1 were prepared. To prepare the compositions, 10 g of a solvent-water blend was added into a 20 mL clear glass vial. 0.05 g of the active pharmaceutical ingredient (API), roflumilast, was added into the vial. The vial was mixed on a jar roller at controlled room temperature at an appropriate speed. A visual evaluation was performed after shaking. If all of the API was dissolved, an additional 0.05 g of API was added into the vial and further mixing was performed. If any API remained undissolved, the total amount of API added to the vial was recorded. The visual inspection was repeated as necessary until no more API could be dissolved. For each solvent, the solubility was determined by syringe filtering (0.2 micron filter) the solvent blend to remove undissolved roflumilast and determining the amount of dissolved roflumilast using HPLC analysis. Composition of the solvent blends were an equal molar solvent-water mixtures, as well as a 1:2 (weight:weight) solvent-water blends. Transcutol P, which is described for use with roflumilast in U.S. Patent Publication No. 2019/009133, was used as a reference point in Example 1.

Molecules are shown by their SMILES.

For the compound `O=C(Nc1c(Cl)cncc1Cl)c1ccc(OC(F)F)c(OCC2CC2)c1` [roflumilast, N-(3,5-dichloropyrid-4-yl)-3-cyclopropylmethoxy-4-difluoromethoxybenzamide], the “μg roflumilast per mL blend (saturation concentration)” value (“μg roflumilast per mL blend” for short) is, setting by setting: (1:2 solvent to water (weight:weight), reference solvent Transcutol P (111-90-0), 5.00 g solvent, 10.01 g water) 45.01 µg/mL; (1:2 solvent to water (weight:weight), solvent 1,2-hexanediol (6920-22-5), 5.02 g solvent, 10.02 g water) 293.26 µg/mL; (1:2 solvent to water (weight:weight), solvent 1,2-pentanediol (3174-67-2), 5.01 g solvent, 10.04 g water) 139.71 µg/mL; (1:2 solvent to water (weight:weight), solvent 1,3-butylene glycol (107-88-0), 5.01 g solvent, 10.00 g water) 11.27 µg/mL; (1:2 solvent to water (weight:weight), solvent 1,3-propanediol (504-63-2), 5.01 g solvent, 10.02 g water) 6.23 µg/mL; (1:2 solvent to water (weight:weight), solvent 1,6-hexanediol (629-11-8), 5.01 g solvent, 10.02 g water) 112.31 µg/mL. Further, the “μg roflumilast per mL blend” value by setting is: (1:2 solvent to water (weight:weight), solvent 2-(2-butoxy-ethoxy)ethanol (112-34-5), 5.01 g solvent, 10.01 g water) 802.24 µg/mL; (1:2 solvent to water (weight:weight), solvent 5-methyloxolan-2-one (108-29-2), 5.01 g solvent, 10.01 g water) 392.14 µg/mL; (1:2 solvent to water (weight:weight), solvent Pantolactone (599-04-2), 5.03 g solvent, 10.02 g water) 62.04 µg/mL; (1:2 solvent to water (weight:weight), solvent dipropylene glycol (25265-71-8), 5.01 g solvent, 10.01 g water) 34.44 µg/mL; (1:2 solvent to water (weight:weight), solvent propylene glycol methyl ethyl acetate (107-98-2), 5.01 g solvent, 10.03 g water) 65.80 µg/mL; (equal molar solvent-water blend, reference solvent Transcutol P (111-90-0), 2.00 g solvent, 14.81 g water) 2.55 µg/mL. Further, the “μg roflumilast per mL blend” value (equal molar solvent-water blend, solvent 1,2-hexanediol (6920-22-5), 2.00 g solvent, 13.24 g water) stood at 37.67 µg/mL; the “μg roflumilast per mL blend” value (equal molar solvent-water blend, solvent 1,2-pentanediol (3174-67-2), 2.21 g solvent, 12.80 g water) was determined as 4.16 µg/mL; the “μg roflumilast per mL blend” value (equal molar solvent-water blend, solvent 1,3-butylene glycol (107-88-0), 2.52 g solvent, 12.51 g water) is 1.46 µg/mL; the “μg roflumilast per mL blend” value (equal molar solvent-water blend, solvent 1,3-propanediol (504-63-2), 3.00 g solvent, 12.60 g water) stood at 2.77 µg/mL; the “μg roflumilast per mL blend” value (equal molar solvent-water blend, solvent 1,6-hexanediol (629-11-8), 2.00 g solvent, 13.11 g water) amounted to 5.81 µg/mL; the “μg roflumilast per mL blend” value (equal molar solvent-water blend, solvent 2-(2-butoxy-ethoxy)ethanol (112-34-5), 1.50 g solvent, 13.50 g water) is 2.29 µg/mL. The “μg roflumilast per mL blend” value reads like this: (equal molar solvent-water blend, solvent 5-methyloxolan-2-one (108-29-2), 2.51 g solvent, 14.03 g water) 7.80 µg/mL; (equal molar solvent-water blend, solvent Pantolactone (599-04-2), 2.00 g solvent, 14.41 g water) 0.96 µg/mL; (equal molar solvent-water blend, solvent dipropylene glycol (25265-71-8), 2.02 g solvent, 14.84 g water) 2.27 µg/mL; (equal molar solvent-water blend, solvent propylene glycol methyl ethyl acetate (107-98-2), 2.50 g solvent, 12.52 g water) 6.04 µg/mL.

(Values after patent publication US12144802B2, “Pharmaceutical compositions of roflumilast and solvents capable of dissolving high amounts of the drug” (ARCUTIS BIOTHERAPEUTICS, INC., priority 2022, dated 2024).)
